Literature values, collected in patent US6943021B2, “Three dimensional vaginal tissue model containing immune cells” (MatTek Corporation, priority 2002, dated 2005).

Tested on: ectocervical-vaginal tissue

Nonoxynol-9 [N-9]
ectocervical-vaginal irritation (finite segment of the population (Reckart 1992)): cause ectocervical-vaginal irritation | volunteers who experienced ectocervical-vaginal irritation (study evaluating N-9 as an HIV microbicide (Stafford et al. 1998)): 25%
